In assay [1] the target is T1, Muscarinic acetylcholine receptor M1 (Homo sapiens, UniProt P11229).
T1 sequence (P11229 whole entry): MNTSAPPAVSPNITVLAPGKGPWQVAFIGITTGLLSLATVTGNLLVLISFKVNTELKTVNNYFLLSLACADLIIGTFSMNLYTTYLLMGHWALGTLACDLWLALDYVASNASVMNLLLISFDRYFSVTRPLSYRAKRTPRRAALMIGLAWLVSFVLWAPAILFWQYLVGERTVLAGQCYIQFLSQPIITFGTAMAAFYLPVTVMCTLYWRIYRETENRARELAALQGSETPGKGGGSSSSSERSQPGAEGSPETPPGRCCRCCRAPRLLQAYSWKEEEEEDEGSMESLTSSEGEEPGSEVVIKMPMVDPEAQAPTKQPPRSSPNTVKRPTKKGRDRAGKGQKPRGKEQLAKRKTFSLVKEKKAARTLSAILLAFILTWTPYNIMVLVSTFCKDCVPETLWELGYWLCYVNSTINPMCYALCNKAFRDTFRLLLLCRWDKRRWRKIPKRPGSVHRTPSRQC
The assay can be described thus: Compound was evaluated for displacement of [3H]QNB from human Muscarinic m1 receptor in CHO cells. Format: cell-based. (In a radioligand displacement assay an active substance lowers the binding of a labelled ligand.)

Assay [2] deals with T2, Muscarinic acetylcholine receptor M2 (Homo sapiens, UniProt P08172).
T2 sequence (P08172 whole entry): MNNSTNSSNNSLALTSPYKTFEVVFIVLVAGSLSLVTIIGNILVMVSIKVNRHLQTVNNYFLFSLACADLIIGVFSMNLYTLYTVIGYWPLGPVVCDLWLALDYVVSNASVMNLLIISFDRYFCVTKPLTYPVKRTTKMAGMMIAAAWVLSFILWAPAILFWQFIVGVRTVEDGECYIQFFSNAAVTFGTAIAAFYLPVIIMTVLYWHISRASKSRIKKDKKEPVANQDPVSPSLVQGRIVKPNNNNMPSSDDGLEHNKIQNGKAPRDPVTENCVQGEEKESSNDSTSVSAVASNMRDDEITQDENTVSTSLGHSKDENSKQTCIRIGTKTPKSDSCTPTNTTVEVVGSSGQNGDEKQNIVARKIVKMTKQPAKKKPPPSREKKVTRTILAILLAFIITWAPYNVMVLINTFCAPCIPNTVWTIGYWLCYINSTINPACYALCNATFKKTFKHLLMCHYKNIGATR
The assay can be described thus: Compound was evaluated for displacement of [3H]-QNB from human Muscarinic m2 receptor in CHO cells. Format: cell-based.

Drawing on ChEMBL document CHEMBL1129005 (Bioorg Med Chem Lett, 1996), this text covers Ki for 3 compounds.

As usually defined, the Ki is a measure of affinity in units of concentration, obtained from inhibition or displacement. High values mean lower affinity, low ones higher affinity.

For the compound `CCCN(CCC)CC1CCCCN1CCNC(=O)N1c2ccccc2C(=O)Nc2cccnc21` (stereo unspecified), the Ki in assay [1] stood at 12.4 nM; in assay [2], 5.28 nM.

Consider `CC1CCN(CC(=O)N2c3ccccc3C(=O)Nc3cccnc32)CC1`, for which the Ki in assay [1] stood at 82.4 nM; in assay [2] it was 71.2 nM.

For the compound `CCN(CC)CC1CCCCN1CC(=O)N1c2ccccc2C(=O)Nc2cccnc21` (stereo unspecified) [OTENZEPAD], the Ki in assay [1] worked out at 179 nM; in assay [2], 52 nM.
